According to patent US10245261B2, “Substituted indol-5-ol derivatives and their therapeutic applications” (NantBioScience, Inc., priority 2013, dated 2019):
Read-outs that look alike come from different tables or passages of the source.

Legend:
[1] = molecular target: Abl (Q252H) (h) (Homo sapiens, UniProt P00519, Q252H); test: KinaseProfiler kinase assay; type: biochemical
[2] = molecular target: T1, Aurora-A(h) (Homo sapiens, UniProt O14965); test: KinaseProfiler kinase assay; type: biochemical; details: for inhibition at 1 µM: read-out: % Inhibition @1 μM Auroro-A
T1 sequence (O14965 1-403): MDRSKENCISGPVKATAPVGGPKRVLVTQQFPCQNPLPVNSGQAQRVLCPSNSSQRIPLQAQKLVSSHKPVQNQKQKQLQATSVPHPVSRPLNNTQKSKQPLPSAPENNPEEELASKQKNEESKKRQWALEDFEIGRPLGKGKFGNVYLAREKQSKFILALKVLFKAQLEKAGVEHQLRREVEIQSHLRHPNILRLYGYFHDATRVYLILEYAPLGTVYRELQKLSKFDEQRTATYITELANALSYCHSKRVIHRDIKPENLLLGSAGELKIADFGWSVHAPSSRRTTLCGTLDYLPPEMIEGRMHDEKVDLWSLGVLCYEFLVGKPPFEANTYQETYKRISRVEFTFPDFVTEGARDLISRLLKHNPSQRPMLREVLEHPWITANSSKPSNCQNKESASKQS
How it was run: (§1)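 Compounds were serially diluted from DMSO into 20 mM MOPS buffer with EDTA, Brij-35, glycerol, β-mercaptoethanol and 1 mg/mL BSA. Reactions started with MgATP/[γ-33P]ATP, ran 40 min at room temperature, and phosphorylation was measured by scintillation counting after filtermat capture.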

[3] = molecular target: T2, Flt3(h) (Homo sapiens, UniProt P36888); test: KinaseProfiler kinase assay; type: biochemical
T2 sequence (P36888 27-993): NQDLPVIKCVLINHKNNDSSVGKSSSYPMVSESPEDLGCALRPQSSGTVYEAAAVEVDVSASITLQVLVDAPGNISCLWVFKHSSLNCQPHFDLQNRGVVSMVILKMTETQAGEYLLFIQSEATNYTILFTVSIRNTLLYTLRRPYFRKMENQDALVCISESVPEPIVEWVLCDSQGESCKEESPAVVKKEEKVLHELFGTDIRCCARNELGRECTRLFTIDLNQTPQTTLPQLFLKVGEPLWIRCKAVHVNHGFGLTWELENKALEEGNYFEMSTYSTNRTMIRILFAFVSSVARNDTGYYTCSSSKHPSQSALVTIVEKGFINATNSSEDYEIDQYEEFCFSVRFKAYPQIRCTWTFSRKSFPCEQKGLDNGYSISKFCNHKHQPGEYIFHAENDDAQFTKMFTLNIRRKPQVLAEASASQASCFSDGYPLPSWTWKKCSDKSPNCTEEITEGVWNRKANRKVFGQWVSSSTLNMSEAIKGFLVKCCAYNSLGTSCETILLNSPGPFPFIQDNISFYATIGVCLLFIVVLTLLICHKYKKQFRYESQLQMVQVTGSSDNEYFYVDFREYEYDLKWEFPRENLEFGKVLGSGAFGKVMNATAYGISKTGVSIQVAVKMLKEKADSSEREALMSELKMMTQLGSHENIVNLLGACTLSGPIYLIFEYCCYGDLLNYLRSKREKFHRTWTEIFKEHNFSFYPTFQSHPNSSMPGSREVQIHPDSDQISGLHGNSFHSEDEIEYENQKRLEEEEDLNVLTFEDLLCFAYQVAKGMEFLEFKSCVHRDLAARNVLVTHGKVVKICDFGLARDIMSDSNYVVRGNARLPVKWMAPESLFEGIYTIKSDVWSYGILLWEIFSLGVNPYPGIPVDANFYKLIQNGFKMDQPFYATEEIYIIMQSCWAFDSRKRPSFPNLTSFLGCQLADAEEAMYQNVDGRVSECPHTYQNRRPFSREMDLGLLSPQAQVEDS
How it was run: as §1

[4] = molecular target: Flt1(h) (Homo sapiens, UniProt P17948); test: KinaseProfiler kinase assay; type: biochemical
[5] = molecular target: Flt4(h) (Homo sapiens, UniProt P35916); test: KinaseProfiler kinase assay; type: biochemical
[6] = system: AN3.CA; test: CellTiterBlue cell growth inhibition; type: cell-based; details: Homo sapiens, 72 hours
Protocol: (§2) This example illustrated the proliferating cell growth inhibition of selected compounds from this invention. To do this, the cells were seeded into fresh Iscove's growth medium at a density of 0.4e6 cells/ml and grown in log phase for 24 hr. Cells were then resuspended in their fresh respective growth media at 0.1e^6 cells/ml and plated into 384 well black, clear-bottom microplates at 36 ul/well. Test compounds and controls were initially dissolved in DMSO at the desired concentration, then serially diluted to the assay buffer. These solutions were added and cells were incubated for 72 hours at 37° C. CellTiterBlue (Promega cat# G7572) was added on the Beckman FX. Plates were returned to the 37° C. CO2 incubator for 4 hr and then fluorescence was determined on the Victor plate reader. Data were processed using Microsoft Excel, and GI50 values were generated using Prism (GraphPad Software, San Diego, Calif.).

[7] = system: KU812; test: CellTiterBlue cell growth inhibition; type: cell-based; details: Homo sapiens; KU812, 72 hours
Protocol: as §2

[8] = system: Kato III; test: CellTiterBlue cell growth inhibition; type: cell-based; details: Homo sapiens, 72 hours
Protocol: as §2

[9] = system: RS4.11; test: CellTiterBlue cell growth inhibition; type: cell-based; details: Homo sapiens; RS4.11, 72 hours
Protocol: as §2

[10] = system: TT; test: CellTiterBlue cell growth inhibition; type: cell-based; details: Homo sapiens, 72 hours
Protocol: as §2

[11] = read-out: IC50 (nM) Auroro-A (h)

Chain of Flt4(h) (P35916 25-1363): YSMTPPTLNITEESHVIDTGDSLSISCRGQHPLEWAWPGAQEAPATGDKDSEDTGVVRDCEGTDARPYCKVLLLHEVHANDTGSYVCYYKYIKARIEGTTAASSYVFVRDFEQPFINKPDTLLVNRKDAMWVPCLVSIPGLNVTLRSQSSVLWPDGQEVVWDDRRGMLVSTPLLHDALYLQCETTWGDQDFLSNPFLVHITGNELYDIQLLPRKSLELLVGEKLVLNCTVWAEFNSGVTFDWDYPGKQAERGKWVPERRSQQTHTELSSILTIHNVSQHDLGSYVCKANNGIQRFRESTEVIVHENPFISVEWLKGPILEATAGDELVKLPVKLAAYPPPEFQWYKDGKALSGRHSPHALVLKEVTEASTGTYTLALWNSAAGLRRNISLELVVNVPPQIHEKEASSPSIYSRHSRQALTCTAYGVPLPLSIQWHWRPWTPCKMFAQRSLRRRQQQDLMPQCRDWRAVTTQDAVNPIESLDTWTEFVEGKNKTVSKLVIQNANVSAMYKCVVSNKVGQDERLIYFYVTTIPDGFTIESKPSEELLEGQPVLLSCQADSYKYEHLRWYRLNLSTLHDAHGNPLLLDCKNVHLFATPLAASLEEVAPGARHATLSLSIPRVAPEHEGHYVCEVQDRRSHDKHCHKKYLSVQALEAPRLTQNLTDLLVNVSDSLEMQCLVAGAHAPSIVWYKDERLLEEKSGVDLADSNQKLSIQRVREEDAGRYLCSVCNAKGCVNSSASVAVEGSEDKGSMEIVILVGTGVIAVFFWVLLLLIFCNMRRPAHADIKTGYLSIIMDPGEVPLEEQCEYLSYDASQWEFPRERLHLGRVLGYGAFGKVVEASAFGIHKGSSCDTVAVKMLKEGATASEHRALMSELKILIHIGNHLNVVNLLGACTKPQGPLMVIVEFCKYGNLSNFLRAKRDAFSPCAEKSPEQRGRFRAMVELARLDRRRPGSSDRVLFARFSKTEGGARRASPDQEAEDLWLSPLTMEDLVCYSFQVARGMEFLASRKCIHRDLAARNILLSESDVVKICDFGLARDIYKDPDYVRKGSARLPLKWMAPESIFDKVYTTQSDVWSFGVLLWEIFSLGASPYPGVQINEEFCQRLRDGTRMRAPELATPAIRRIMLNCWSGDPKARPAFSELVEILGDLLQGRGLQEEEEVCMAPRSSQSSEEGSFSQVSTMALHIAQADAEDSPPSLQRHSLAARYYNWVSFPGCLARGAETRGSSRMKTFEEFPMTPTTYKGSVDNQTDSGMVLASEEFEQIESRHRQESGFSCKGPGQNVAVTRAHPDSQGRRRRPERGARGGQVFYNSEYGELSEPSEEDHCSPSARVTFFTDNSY
Chain of Flt1(h) (P17948 27-1338): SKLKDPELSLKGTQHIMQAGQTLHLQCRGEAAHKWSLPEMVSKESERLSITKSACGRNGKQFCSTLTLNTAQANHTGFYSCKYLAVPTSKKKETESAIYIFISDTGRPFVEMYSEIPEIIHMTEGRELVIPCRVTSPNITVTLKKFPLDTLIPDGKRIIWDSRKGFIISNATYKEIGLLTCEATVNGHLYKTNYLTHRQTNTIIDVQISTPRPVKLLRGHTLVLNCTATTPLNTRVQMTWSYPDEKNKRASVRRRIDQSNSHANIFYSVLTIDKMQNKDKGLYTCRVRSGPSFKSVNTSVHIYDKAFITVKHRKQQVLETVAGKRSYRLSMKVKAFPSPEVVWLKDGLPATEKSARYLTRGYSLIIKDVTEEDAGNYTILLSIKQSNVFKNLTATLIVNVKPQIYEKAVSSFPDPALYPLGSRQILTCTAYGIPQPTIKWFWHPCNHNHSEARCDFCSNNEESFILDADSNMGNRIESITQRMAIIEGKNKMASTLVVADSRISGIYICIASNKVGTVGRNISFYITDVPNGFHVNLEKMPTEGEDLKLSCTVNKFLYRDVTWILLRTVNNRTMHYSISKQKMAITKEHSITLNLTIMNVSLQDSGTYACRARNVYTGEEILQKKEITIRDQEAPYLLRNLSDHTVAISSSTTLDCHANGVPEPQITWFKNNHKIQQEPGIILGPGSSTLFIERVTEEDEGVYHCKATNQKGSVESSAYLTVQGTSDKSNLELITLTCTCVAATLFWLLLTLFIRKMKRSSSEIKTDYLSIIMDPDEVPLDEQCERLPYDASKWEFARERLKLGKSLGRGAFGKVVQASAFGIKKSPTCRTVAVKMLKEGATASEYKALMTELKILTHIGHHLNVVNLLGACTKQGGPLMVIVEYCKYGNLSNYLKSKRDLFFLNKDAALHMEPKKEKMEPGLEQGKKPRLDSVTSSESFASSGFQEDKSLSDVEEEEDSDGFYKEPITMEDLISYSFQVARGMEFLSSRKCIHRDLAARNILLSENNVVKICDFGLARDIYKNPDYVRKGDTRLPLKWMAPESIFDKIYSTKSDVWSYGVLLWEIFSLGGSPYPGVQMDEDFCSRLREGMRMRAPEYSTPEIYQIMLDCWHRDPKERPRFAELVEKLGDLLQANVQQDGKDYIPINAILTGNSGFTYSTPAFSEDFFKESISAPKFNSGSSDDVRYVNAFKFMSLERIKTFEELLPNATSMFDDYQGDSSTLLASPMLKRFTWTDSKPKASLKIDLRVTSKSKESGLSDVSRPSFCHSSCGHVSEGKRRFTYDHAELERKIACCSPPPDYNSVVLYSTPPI

Row | Compound | IC50 ([1]; Abl (Q252H)) | IC50 ([2]; Aurora-A, read-out: IC50) | inhibition at 1 µM [2] | inhibition at 1 µM [3] | IC50 ([3]; Flt3, read-out: IC50) | IC50 ([4]; VEGFR1) | IC50 ([5]; VEGFR3) | GI50 [6] | GI50 [7] | GI50 [8] | GI50 [9] | GI50 [10] | inhibition at 0.1 µM [1] | inhibition at 0.1 µM [2] | IC50 [2, 11] | inhibition at 0.1 µM [3] | IC50 ([3]; read-out: IC50 (nM) Flt3 (h)) | inhibition at 0.1 µM [4] | inhibition at 0.1 µM [5]
1 | C/C=C/c1cc(Nc2cc(N3CCN(C)CC3)nc(Oc3ccc4[nH]c(C)cc4c3F)n2)n[nH]1 [Compound 53] | 0.5 nM | 4 nM | 97% | 99% | 13 nM | 3 nM | 2 nM | 0.78 nM | 0.24 nM | 0.06 nM | 11 nM | 3.5 nM |  |  |  |  |  |  | 
2 | Cc1cc2c(F)c(Oc3nc(Nc4cc(C5CC5)[nH]n4)cc(N4CCN(C)CC4)n3)ccc2[nH]1 [Compound 10] |  |  | 99% | 100% |  |  |  | 3 nM | < 0.025 nM | 0.07 nM | 3.22 nM | 8.3 nM | 99% | 98% | 2 nM | 101% | 11 nM | 100% | 100%
3 | Cc1cc2c(F)c(Oc3nc(Nc4cc(C5CC5)[nH]n4)cc(N4CCNCC4)n3)ccc2[nH]1 [Compound 11, N-(5-cyclopropyl-1H-pyrazol-3-yl)-2-((4-fluoro-2-methyl-1H-indol-5-yl)oxy)-6-(piperazin-1-yl)pyrimidin-4-amine] |  |  | 100% | 100% |  |  |  |  | 1.61 nM |  | 3.16 nM |  | 102% | 99% | < 0.1 nM | 98% | 12 nM | 100% | 100%
4 | C/C=C/c1cc(Nc2cc(N3CCN(CCO)CC3)nc(Oc3cc(F)c4[nH]c(C)cc4c3F)n2)n[nH]1 [Compound 88] |  |  | 100% | 100% |  |  |  | 0.31 nM | 0.71 nM | 0.06 nM | 3.71 nM | 3.4 nM |  |  |  |  | 8 nM |  | 
5 | Cc1cc2c(F)c(Oc3nc(Nc4cc(C5CC5)[nH]n4)cc(N4CCNCC4)n3)cc(F)c2[nH]1 [Compound 82] |  |  | 100% | 100% |  |  |  |  | 0.75 nM |  | 2.65 nM |  |  |  | 4 nM |  | 6 nM |  | 
6 | C/C=C/c1cc(Nc2cc(N3CCNCC3)nc(Oc3ccc4[nH]c(C)cc4c3F)n2)n[nH]1 [Compound 68] |  |  | 99% | 100% |  |  |  | 0.88 nM |  |  |  | 1.9 nM |  |  | 10 nM |  | 4 nM |  | 
